Data taken from patent US9776972B2, “Pyrazole derivatives as arginine methyltransferase inhibitors and uses thereof” (priority 2013, dated 2017).

Target: human PRMT3 (Homo sapiens, UniProt O60678)
Test: PRMT3 Biochemical Assay (3H-SAM Flashplate, peptide substrate)
Settings: single experiment or average of multiple experiments
Description: S-adenosylmethionine (SAM), S-adenosylhomocysteine (SAH), bicine, Tween20, dimethylsulfoxide (DMSO), bovine skin gelatin (BSG), isopropyl-β-D-thiogalactopyranoside (IPTG), and Tris(2-carboxyethyl)phosphine hydrochloride solution (TCEP) were purchased from Sigma-Aldrich at the highest level of purity possible. ^3H-SAM was purchase from American Radiolabeled Chemicals with a specific activity of 80 Ci/mmol. 384-well streptavidin Flashplates were purchased from PerkinElmer.
Peptide containing the classic RMT substrate motif was synthesized with an N-terminal linker-affinity tag motif and a C-terminal amide cap by 21st Century Biochemicals. The peptide was purified by high-performance liquid chromatography (HPLC) to greater than 95% purity and confirmed by liquid chromatography mass spectrometry (LC-MS). The sequence was Biot-Ahx-[…]-amide (SEQ ID NO.:11).
Full-length human PRMT3 (NM_005788.3) isoform 1 transcript clone was amplified from an HEK 293 cDNA library and subcloned into pGEX-KG (GE Life Sciences). The resulting construct encodes an N-terminal GST tag and a thrombin cleavage sequence ([…] […] […] […]) (SEQ ID NO.: 12) fused directly to Cys 2 of PRMT3.
E. coli (BL21(DE3) Gold, Stratagene) made competent by the CaCl2 method were transformed with the PRMT3 construct and ampicillin selection. Protein over-expression was accomplished by growing the PRMT3 expressing E. coli clone and inducing expression with 0.3 mM IPTG at 16° C. The culture was grown for 12 hours, harvested by centrifugation, and stored at −80° C. for purification.
GST-tagged PRMT3 was eluted with 50 mM Tris, 2 mM glutathione, pH 7.1 and 50 mM Tris, 20 mM glutathione, pH 7.1. Pooled fractions were dialysed in 20 mM Tris, 50 mM NaCl, 5% glycerol, 1 mM EDTA, 1 mM DTT, pH7.5 (Buffer B) and applied to a Q Sepharose Fast Flow column. GST-tagged PRMT3 was eluted by 500 mM NaCl in buffer B. Pooled fractions were dialyzed in 25 mM phosphate buffer, 100 mM NaCl, 5% glycerol, 2 mM DTT, pH 6.8 (Buffer C) and loaded on to a ceramic hydroxyapatite column. GST-tagged PRMT3 eluted with 25-400 mM phosphate in buffer C. Protein was concentrated and buffer was exchanged to 20 mM Tris, 150 mM NaCl, 5% glycerol, 5 mM β-mercaptoethanol, pH7.8 by ultrafiltration. The purity of recovered protein was 70%.
General Procedure for PRMT3 Enzyme Assays on Peptide Substrates.
The assays were all performed in a buffer consisting of 20 mM Bicine (pH=7.6), 1 mM TCEP, 0.005% BSG, and 0.002% Tween 20, prepared on the day of use. Compounds in 100% DMSO (1 ul) were spotted into a polypropylene 384-well V-bottom plates (Greiner) using a Platemate Plus outfitted with a 384-channel head (Thermo Scientific). DMSO (1 ul) was added to Columns 11, 12, 23, 24, rows A-H for the maximum signal control and 1 ul of SAH, a known product and inhibitor of PRMT3, was added to columns 11, 12, 23, 24, rows I-P for the minimum signal control. A cocktail (40 ul) containing the PRMT3 enzyme was added by Multidrop Combi (Thermo-Fisher). The compounds were allowed to incubate with PRMT3 for 30 min at room temperature, then a cocktail (10 ul) containing SAM and peptide was added to initiate the reaction (final volume=51 ul). The final concentrations of the components were as follows: PRMT3 was 0.5 nM, ^3H-SAM was 100 nM, non-radiolabeled SAM was 1.8 uM, peptide was 330 nM, SAH in the minimum signal control wells was 1 mM, and the DMSO concentration was 2%. The assays were stopped by the addition of potassium chloride (10 ul) to a final concentration of 100 mM. 50 ul of the reaction in the 384-well polypropylene plate was then transferred to a 384-well Flashplate and the biotinylated peptides were allowed to bind to the streptavidin surface for at least 1 hour before being washed once with 0.1% Tween20 in a Biotek ELx405 plate washer. […]

Sequence of human PRMT3 (O60678 with tags, fused parts or gaps): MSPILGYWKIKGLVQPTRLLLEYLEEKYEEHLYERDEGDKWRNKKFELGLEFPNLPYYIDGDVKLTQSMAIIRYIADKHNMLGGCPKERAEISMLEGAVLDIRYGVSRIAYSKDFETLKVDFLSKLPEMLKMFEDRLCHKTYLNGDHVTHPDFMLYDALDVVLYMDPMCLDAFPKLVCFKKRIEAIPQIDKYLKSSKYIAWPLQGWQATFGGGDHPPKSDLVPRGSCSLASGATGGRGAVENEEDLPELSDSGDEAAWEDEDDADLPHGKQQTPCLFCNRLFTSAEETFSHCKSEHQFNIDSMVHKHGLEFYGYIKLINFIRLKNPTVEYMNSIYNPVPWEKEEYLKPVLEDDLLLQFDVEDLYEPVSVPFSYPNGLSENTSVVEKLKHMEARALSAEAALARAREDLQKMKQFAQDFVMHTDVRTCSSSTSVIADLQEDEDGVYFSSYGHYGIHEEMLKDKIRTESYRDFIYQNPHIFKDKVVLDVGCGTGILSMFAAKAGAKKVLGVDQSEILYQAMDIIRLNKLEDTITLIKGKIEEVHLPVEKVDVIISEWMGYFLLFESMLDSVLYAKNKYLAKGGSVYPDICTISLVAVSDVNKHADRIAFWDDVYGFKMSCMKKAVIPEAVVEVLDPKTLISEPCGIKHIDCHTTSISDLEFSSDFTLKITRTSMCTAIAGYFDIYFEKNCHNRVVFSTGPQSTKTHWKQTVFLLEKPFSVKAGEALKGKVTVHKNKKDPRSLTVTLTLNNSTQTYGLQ

Compound	IC50 [µM]
CNCCN(C)Cc1cnn(C2CC2)c1-c1ccc(F)cc1 [Compound 14]	23.3
CNCCN(C)Cc1cnn(C(C)C)c1-c1ccc(F)cc1 [Compound 16]	> 50
CNCCN(C)Cc1cn[nH]c1-c1ccc(C#N)cc1 [Compound 17]	2.79
CNCCN(C)Cc1cn[nH]c1-c1cc(F)cc(F)c1 [Compound 18]	7.43
CN(CCN)Cc1n[nH]cc1-c1ccc(C2CCOCC2)cc1 [Compound 145]	7.18
COc1ccc(-c2n[nH]cc2CN(C)CCN)c(Cl)c1 [Compound 146]	9
CN(CCN)Cc1c[nH]nc1-c1cccc(N(C)C)c1 [Compound 149]	9.02
Cc1cc(F)ccc1-c1n[nH]cc1CN(C)CCN [Compound 152]	9.63
COc1ccc(-c2n[nH]cc2CN(C)CCN)cc1 [Compound 153]	4.1
COc1ccc(-c2n[nH]cc2CN(C)CCN)c(C)c1 [Compound 155]	8.56
Cc1ccc(-c2n[nH]cc2CN(C)CCN)cc1 [Compound 162]	3.52
CCOc1ccc(-c2n[nH]cc2CN(C)CCN)cc1 [Compound 166]	3.45
COCCOc1ccc(-c2n[nH]cc2CN(C)CCN)cc1 [Compound 167]	3.74
CC(C)Cc1ccc(-c2c[nH]nc2CN(C)CCN)cc1 [Compound 170]	7.33
CN(CCN)Cc1c[nH]nc1-c1ccc(OCCN2CCOCC2)cc1 [Compound 172]	3.41
